Patent US20200247800A1, “SUBSTITUTED BICYCLIC HETEROCYCLIC COMPOUNDS AS NADPH OXIDASE INHIBITORS” (Glenmark Pharmaceuticals S.A., priority 2017, published 2020)

Target: T1, human NOX4 (Homo sapiens, UniProt Q9NPH5)
T1 construct: expressed in transfected cells; membrane fraction used
T1 sequence (Q9NPH5 1-578): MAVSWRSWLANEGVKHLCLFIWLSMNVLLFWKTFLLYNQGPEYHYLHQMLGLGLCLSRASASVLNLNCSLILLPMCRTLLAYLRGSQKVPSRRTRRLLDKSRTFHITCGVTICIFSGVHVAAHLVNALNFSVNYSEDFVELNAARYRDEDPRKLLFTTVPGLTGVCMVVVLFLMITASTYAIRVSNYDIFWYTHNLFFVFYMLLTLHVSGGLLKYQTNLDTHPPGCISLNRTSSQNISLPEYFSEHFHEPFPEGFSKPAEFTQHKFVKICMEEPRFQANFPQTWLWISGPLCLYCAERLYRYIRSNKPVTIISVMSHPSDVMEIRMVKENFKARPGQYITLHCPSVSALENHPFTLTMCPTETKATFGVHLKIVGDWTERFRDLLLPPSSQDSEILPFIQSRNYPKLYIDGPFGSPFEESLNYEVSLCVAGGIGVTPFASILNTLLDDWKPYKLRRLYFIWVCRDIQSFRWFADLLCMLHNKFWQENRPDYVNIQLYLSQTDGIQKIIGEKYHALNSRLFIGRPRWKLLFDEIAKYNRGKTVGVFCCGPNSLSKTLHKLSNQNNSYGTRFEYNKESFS
T1 sequence (P13498 1-195 partner): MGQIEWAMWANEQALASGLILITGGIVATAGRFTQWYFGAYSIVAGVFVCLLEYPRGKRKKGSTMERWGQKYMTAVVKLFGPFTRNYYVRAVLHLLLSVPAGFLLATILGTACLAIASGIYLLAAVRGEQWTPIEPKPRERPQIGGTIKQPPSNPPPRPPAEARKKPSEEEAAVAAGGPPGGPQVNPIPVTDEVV
Test: Cell free membrane based in vitro NOX4 assay: H2O2 production by membranes expressing human NOX4, measured with Amplex Red
Format: biochemical
Settings: for inhibition at 1 µM: 1.0 μM compound, read-out: Percentage inhibition at 1.0 μM; for inhibition at 10 µM: 10.0 μM compound, read-out: Percentage inhibition at 10.0 μM; for IC50: class symbols
Description: The inhibition of NOX4 activity was measured as inhibition of formation of reactive oxygen species (ROS) from oxygen in cell free assays. […] A cell free membrane based in vitro assay was developed by preparing membranes from cells stably overexpressing human NOX4. hNOX4/HEK stable cell line was generated in-house for this purpose. Membranes from stably transfected cells overexpressing human NOX4 were prepared by homogenizing the cells in buffer (20 mM HEPES, 1 mM EGTA, 0.5 mM DTT, 0.5% protease inhibitor cocktail, 1 mM PMSF, pH 7.6), followed by centrifugation at 160000 g for 30 min. Membrane fraction (pellet) was resuspended in storage buffer (homogenization buffer with 10% glycerol and 100 mM NaCl) and stored at −80° C. Protein concentration was determined by Bradford reagent. H202 production by membranes expressing human NOX4 was measured using Amplex Red (Invitrogen) by following a slightly modified version of the manufacturer's instruction manual. Briefly, membranes were incubated in assay buffer (25 mM HEPES, 0.12 M NaCl, 3 mM KCl, 1 mM MgCl2, pH 7.4) with Horse Radish Peroxidase (HRP) and Amplex Red. Reaction was started by addition of […] to the membrane mix. Antagonism of NOX4 inhibitors was measured by incubating the membrane with increasing concentrations of the inhibitors for 20 min on a plate shaker prior to addition of NADPH. H2O2 levels were measured for 10 min in a BMG Fluostar microplate reader with excitation and emission wavelengths of 544 nm and 590 nm respectively. Concentration response curves were plotted as a % of maximal response obtained in the absence of the inhibitor. IC50 value was calculated from concentration response curve by nonlinear regression analysis using GraphPad PRISM software.

Structure (SMILES)	inhibition at 1 µM	inhibition at 10 µM	IC50
Cc1nn(C2CC2)c2[nH]c(-c3cc(CNC(=O)C(C)(C)C)ccc3Cl)c(O)c(=O)c12 [Example 133, N-(4-Chloro-3-(1-cyclopropyl-5-hydroxy-3-methyl-4-oxo-4,7-dihydro-1H-pyrazolo[3,4-b]pyridin-6-yl)benzyl)pivalamide]	77.3%	88.8%	> 150 nM
CCCn1nc(CO)c2c(=O)c(O)c(-c3c(F)cccc3F)[nH]c21 [Example 182, 6-(2,6-Difluorophenyl)-5-hydroxy-3-(hydroxymethyl)-1-propyl-1H-pyrazolo[3,4-b]pyridin-4(7H)-one]	100%	100%	50 to 100 nM
COc1ccc(-n2nc(C)c3c(=O)c(O)c(-c4c(F)cccc4F)[nH]c32)cc1 [Example 29, 6-(2,6-Difluorophenyl)-5-hydroxy-1-(4-methoxyphenyl)-3-methyl-1,7-dihydro-4H-pyrazolo[3,4-b]pyridin-4-one]	89.4%	95.6%	100 to 150 nM
COc1cc(F)c(-c2[nH]c3c(c(C)nn3C)c(=O)c2O)c(F)c1 [Example 67, 6-(2,6-Difluoro-4-methoxyphenyl)-5-hydroxy-1,3-dimethyl-1H-pyrazolo[3,4-b]pyridin-4(7H)-one]	87.1%	85.7%	50 to 100 nM
Cn1nc(C(F)(F)F)c2c(=O)c(O)c(-c3cc(Cl)ccc3Cl)[nH]c21 [Example 50, 6-(2,5-Dichlorophenyl)-5-hydroxy-1-methyl-3-(trifluoromethyl)-1,7-dihydro-4H-pyrazolo[3,4-b]pyridin-4-one]	89.3%	99.5%	100 to 150 nM
Cc1cc(F)ccc1-n1nc(C)c2c(=O)c(O)c(-c3ccccc3Cl)[nH]c21 [Example 126, 6-(2-Chlorophenyl)-1-(4-fluoro-2-methylphenyl)-5-hydroxy-3-methyl-1,7-dihydro-4H-pyrazolo[3,4-b]pyridin-4-one]	63.4%	76.3%	> 150 nM
Cc1nn(C2CC2)c2[nH]c(-c3ccccc3Cl)c(O)c(=O)c12 [Example 125, 6-(2-Chlorophenyl)-1-cyclopropyl-5-hydroxy-3-methyl-1,7-dihydro-4H-pyrazolo[3,4-b]pyridin-4-one]	58.4%	66.8%	
Cn1nc(C(F)(F)F)c2c(=O)c(O)c(-c3ccc(O)cc3)[nH]c21 [Example 225, 5-hydroxy-6-(4-hydroxyphenyl)-1-methyl-3-(trifluoromethyl)-1,7-dihydro-4H-pyrazolo[3,4-b]pyridin-4-one]	80.1%	90.7%	> 150 nM
Cc1nn(C2CC2)c2[nH]c(-c3c(F)cccc3Cl)c(O)c(=O)c12 [Example 124, 6-(2-Chloro-6-fluorophenyl)-1-cyclopropyl-5-hydroxy-3-methyl-1,7-dihydro-4H-pyrazolo[3,4-b]pyridin-4-one]	69.3%	81.9%	> 150 nM
COc1ccc(Cl)c(-c2[nH]c3c(c(C)nn3C)c(=O)c2O)c1 [Example 23, 6-(2-Chloro-5-methoxyphenyl)-5-hydroxy-1,3-dimethyl-1,7-dihydro-4H-pyrazolo[3,4-b]pyridin-4-one]	100%	99.3%	50 to 100 nM
Cc1nn(-c2ccc(F)c(F)c2)c2[nH]c(-c3ccccc3Cl)c(O)c(=O)c12 [Example 31, 6-(2-Chlorophenyl)-1-(3,4-difluorophenyl)-5-hydroxy-3-methyl-1,7-dihydro-4H-pyrazolo[3,4-b]pyridin-4-one]	100%	100%	< 50 nM
CCn1nc(C)c2c(=O)c(O)c(-c3ccc(F)c(C(F)(F)F)c3F)[nH]c21 [Example 116, 6-(2,4-Difluoro-3-(trifluoromethyl)phenyl)-1-ethyl-5-hydroxy-3-methyl-1H-pyrazolo[3,4-b]pyridin-4(7H)-one]	78.6%	73%	> 150 nM
Cn1nc(C(F)(F)F)c2c(=O)c(O)c(-c3ccc(Cl)cc3)[nH]c21 [Example 43, 6-(4-Chlorophenyl)-5-hydroxy-1-methyl-3-(trifluoromethyl)-1,7-dihydro-4H-pyrazolo[3,4-b]pyridin-4-one]	90.6%	97.9%	100 to 150 nM
Cc1nn(C2CCCC2)c2[nH]c(-c3c(F)cccc3F)c(O)c(=O)c12 [Example 127, 1-Cyclopentyl-6-(2,6-difluorophenyl)-5-hydroxy-3-methyl-1,7-dihydro-4H-pyrazolo[3,4-b]pyridin-4-one]	87.5%	89.5%	< 50 nM
COc1ccc(-c2[nH]c3c(c(C(F)(F)F)nn3C)c(=O)c2O)c(Cl)c1 [Example 48, 6-(2-Chloro-4-methoxyphenyl)-5-hydroxy-1-methyl-3-(trifluoromethyl)-1,7-dihydro-4H-pyrazolo[3,4-b]pyridin-4-one]	84.2%	98.3%	100 to 150 nM
Cc1nn(C)c2[nH]c(-c3cc(Cl)ccc3Cl)c(O)c(=O)c12 [Example 20, 6-(2,5-Dichlorophenyl)-5-hydroxy-1,3-dimethyl-1,7-dihydro-4H-pyrazolo[3,4-b]pyridin-4-one]	95.9%	96.1%	< 50 nM
O=c1c(O)c(-c2c(F)cccc2F)[nH]c2c1c(CO)nn2CCC1CCOCC1 [Example 217, 6-(2,6-difluorophenyl)-5-hydroxy-3-(hydroxymethyl)-1-(2-(tetrahydro-2H-pyran-4-yl)ethyl)-1H-pyrazolo[3,4-b]pyridin-4(7H)-one]	83.8%	89.7%	100 to 150 nM
O=c1c(O)c(-c2c(F)cccc2F)[nH]c2c1c(CO)nn2C1CC1 [Example 183, 1-Cyclopropyl-6-(2,6-difluorophenyl)-5-hydroxy-3-(hydroxymethyl)-1H-pyrazolo[3,4-b]pyridin-4(7H)-one]	84.2%	97.1%	100 to 150 nM
CCn1nc(C)c2c(=O)c(O)c(-c3cc(CNC(=O)C(C)(C)C)ccc3F)[nH]c21 [Example 138, N-(3-(1-Ethyl-5-hydroxy-3-methyl-4-oxo-4,7-dihydro-1H-pyrazolo[3,4-b]pyridin-6-yl)-4-fluorobenzyl)pivalamide]	92.6%	85%	> 150 nM
CCc1nn(C)c2[nH]c(-c3ccccc3Cl)c(O)c(=O)c12 [Example 56, 6-(2-Chlorophenyl)-3-ethyl-5-hydroxy-1-methyl-1,7-dihydro-4H-pyrazolo[3,4-b]pyridin-4-one]	82.4%	69.8%	< 50 nM
CCc1nn(CCN2CCC(F)(F)CC2)c2[nH]c(-c3ccccc3Cl)c(O)c(=O)c12 [Example 210, 6-(2-Chlorophenyl)-1-(2-(4,4-difluoropiperidin-1-yl)ethyl)-3-ethyl-5-hydroxy-1H-pyrazolo[3,4-b]pyridin-4(7H)-one]	91%	86.3%	> 150 nM
Cn1nc(C(F)(F)F)c2c(=O)c(O)c(-c3ccccc3Cl)[nH]c21 [Example 40, 6-(2-Chlorophenyl)-5-hydroxy-1-methyl-3-(trifluoromethyl)-1,7-dihydro-4H-pyrazolo[3,4-b]pyridin-4-one]	93.3%	100%	< 50 nM
O=c1c(O)c(-c2c(F)cccc2F)[nH]c2c1cnn2-c1ccc(F)cc1 [Example 9, 6-(2,6-Difluorophenyl)-1-(4-fluorophenyl)-5-hydroxy-1,7-dihydro-4H-pyrazolo[3,4-b]pyridin-4-one]	81.7%	97.4%	> 150 nM
